# d = 2'-deoxy (DNA); m = 2'-O-methyl
# How the values were obtained:
# [1] = test system: Human cancer HCT116 cells; assay: cell cycle arrest by FACS; assay type: cell-based; details: HCT116, 16 hours; concentration to induce a (G2+M)/S ratio of 2.5
# Protocol: Human cancer HCT116 cells were plated at 2×10^5 per 10-cm dish and were left to attach to the dish overnight in the incubator. Cells were treated with small molecule inhibitors at various concentrations (1 uM and 10 uM, typically, dissolved in DMSO) for 16 hours. Cells were harvested by trypsinization and washed once in 1×PBS (phosphate buffered saline). The cells were resuspended in about 200 ul 1×PBS and were fixed by slowly adding 1 ml 70% ethanol at −20° C. and were left at least overnight at −20° C. Fixed cells were centrifuged at low speed (1,000 rpm) for 5 minutes, and the cell pellets were washed again with 1×PBS. Nucleic acids from fixed cells were incubated in a staining solution (0.1% (w/v) glucose in 1×PBS containing 50 ug/ml propidium iodide) (Sigma-Aldridge, Mississauga, Ontario, CA) and RNase A (final 100 units/ml, (Sigma-Aldridge, Mississauga, Ontario, CA) for at least 30 minutes in the dark at 25° C. DNA content was measured by using a fluorescence-activated cell sorter (FACS) machine. Treatment of cells with all HDAC small molecule inhibitors in Table 2 results in a significant accumulation of cancer cell in G2/M phase of the cell cycle and concomitantly reduce the accumulation of cancer cells in S phase of the cell cycle. The ratio of cells in G2/M phase vs. cells in the S. phase was determined. […]
# [2] = test system: human colon cancer HCT116 cells; assay: MTT assay of cell proliferation; assay type: cell-based; details: HCT-116, 72 hours
# Protocol: Two thousand (2,000) human colon cancer HCT116 cells (ATCC, Manassas, Va. were used in an MTT (3-[4,5-dimethylthiazol-2-yl]-2,5 diphenyl tetrazolium bromide) assay to quantitatively determine cell proliferation and cytotoxicity. Typically, HCT116 cells were plated into each well of the 96-well tissue culture plate and left overnight to attach to the plate. Compounds at various concentrations were added into the culture media (final DMSO concentration 1%) and incubated for 72 hours. MTT solution (obtained from Sigma as powder) was added and incubated with the cells for 4 hours at 37° C. in incubator with 5% CO2. During the incubation, viable cells convert MTT to a water-insoluble formazan dye. Solubilizing buffer (50% N,N-dimethylformamide, 20% SDS, pH 4.7) was added to cells and incubated for overnight at 37C in incubator with 5% CO2. Solubilized dye was quantitated by calorimetric reading at […] using a reference of […]. Optical density values were converted to cell number values by comparison to a standard growth curve for each cell line.
# HMEC [3] = assay: apoptosis, Cell Death Detection ELISA, HMEC; assay type: cell-based, human; details: OSDN, normal cells
# Protocol: (§1) In order to determine the effect of HDAC OSDNs on cell growth and cell death through apoptosis, A549 or T24 cells, MDAmb231 cells, and HMEC cells (ATCC, Manassas, Va.) were treated with HDAC OSDNs as previously described.
# (§2) For the apoptosis study, cells were analyzed using the Cell Death Detection ELISA^Plus kit (Roche Diagnostic GmBH, Mannheim, Germany) according to the manufacturer's directions. Typically, 10,000 cells were plated in 96-well tissue culture dishes for 2 hours before harvest and lysis. Each sample was analyzed in duplicate. ELISA reading was done using a MR700 plate reader (DYNEX Technology, Ashford, Middlesex, England) at 410 nm. The reference was set at 490 nm.
# [4] = test system: cyclin B1 in Human cancer A549 cells; assay: Western blot of cyclin B1 in A549 cells; assay type: cell-based; details: 48 hours, FIG. 16
# Protocol: (§3) Human cancer A549 cells were treated with AS1, AS2 or MM oligo directed human HDAC1 for 48 hours. Total cell lysates were harvested and analyzed by Western blot using antibodies against human HDAC1, cyclin B1, cyclin A and actin (all from Santa Cruz Biotechnology, Inc., Santa Cruz, Calif.). […] (FIG. 16)
# human HDAC-1 RNA = assay: antisense screen by Northern blot in T24 cells, HDAC-1; assay type: cell-based; details: 100 nM, 24 hours
# Protocol: (§4) Briefly, human A549 and/or T24 human bladder carcinoma cells were seeded in 10 cm tissue culture dishes one day prior to oligonucleotide treatment. The cell lines were obtained from the American Type Culture Collection (ATCC) (Manassas, Va.) and were grown under the recommended culture conditions. Before the addition of the oligonucleotides, cells were washed with PBS (phosphate buffered saline). Next, lipofectin transfection reagent (GIBCO BRL Mississauga, Ontario, Calif.), at a concentration of 6.25 μg/ml, was added to serum free OPTIMEM medium (GIBCO BRL, Rockville, Md.), which was then added to the cells. The oligonucleotides to be screened were then added directly to the cells (i.e., one oligonucleotide per plate of cells). Mismatched oligonucleotides were used as controls. The same concentration of oligonucleotide (e.g., 50 nM) was used per plate of cells for each oligonucleotide tested.
# Cells were harvested, and total RNAs were analyzed by Northern blot analysis. Briefly, total RNA was extracted using RNeasy miniprep columns (QIAGEN). Ten to twenty μg of total RNA was run on a formaldehyde-containing 1% agarose gel with 0.5 M sodium phosphate (pH 7.0) as the buffer system. RNAs were then transferred to nitrocellulose membranes and hybridized with the indicated radiolabeled DNA probes. Autoradiography was performed using conventional procedures.
# T24 [5] = assay: apoptosis, Cell Death Detection ELISA, T24; assay type: cell-based, human; details: OSDN
# Protocol: as §1, §2
# [6] = test system: cyclin A in Human cancer A549 cells; assay: Western blot of cyclin A in A549 cells; assay type: cell-based; details: 48 hours, FIG. 16
# Protocol: as §3
# A549 [7] = assay: apoptosis, Cell Death Detection ELISA, A549; assay type: cell-based, human; details: OSDN
# Protocol: as §1, §2
# MDAmb231 [8] = assay: apoptosis, Cell Death Detection ELISA, MDAmb231; assay type: cell-based, human; details: OSDN
# Protocol: as §1, §2
# human cancer cells = assay: cell growth and apoptosis of human cancer cells; assay type: cell-based; details: for growth arrest and apoptosis of human cancer cells: text summary of FIGS. 11-13, Tables 4 and 5
# Protocol: as §1, §2
# (§5) Cells were harvested and cell numbers counted by trypan blue exclusion using a hemocytometer. Percentage of inhibition was calculated as (100—AS cell numbers/control cell numbers)%.
# MDAmb231 [9] = assay: cell growth analysis (trypan blue cell count), MDAmb231; assay type: cell-based, human; details: 50 nM, 72 hours
# Protocol: as §4, §1, §5
# human HDAC-2 RNA = assay: antisense screen by Northern blot in T24 cells, HDAC-2; assay type: cell-based; details: screened as above (T24 cells, 100 nM, 24 hours)
# Protocol: Twenty-four phosphorothioate ODNs containing sequences complementary to the 5′ or 3′ UTR of the human HDAC-2 gene (GenBank Accession No. U31814) were screened as above. […] HDAC-2 MM was created as a control; compared to the antisense oligo, it contains a 7-base mismatch.
# as §4
# (§6) Cells were harvested, and total RNAs were analyzed by Northern blot analysis. Briefly, total RNA was extracted using RNeasy miniprep columns (QIAGEN). […]
# HMEC [10] = assay: cell growth analysis (trypan blue cell count), HMEC; assay type: cell-based, human; details: 50 nM, 72 hours, normal cells
# Protocol: as §4, §1, §5
# T24 [11] = assay: cell growth analysis (trypan blue cell count), T24; assay type: cell-based, human; details: 50 nM, 72 hours
# Protocol: as §4, §1, §5
# human HDAC-3 RNA = assay: antisense screen by Northern blot in T24 cells, HDAC-3; assay type: cell-based; details: screened as above (T24 cells, 100 nM, 24 hours)
# Protocol: Twenty-one phosphorothioate ODNs containing sequences complementary to the 5′ or 3′ UTR of the human HDAC-3 gene (GenBank Accession No. AF039703) were screened as above. […] HDAC-3 MM oligonucleotide was created as a control; compared to the antisense oligonucleotide, it contains a 6-base mismatch.
# as §4, §6
# A549 [12] = assay: cell growth analysis (trypan blue cell count), A549; assay type: cell-based, human; details: 50 nM, 72 hours
# Protocol: as §4, §1, §5
# human HDAC-4 RNA = assay: antisense screen by Northern blot in T24 cells, HDAC-4; assay type: cell-based; details: screened as above (T24 cells, 100 nM, 24 hours)
# Protocol: Seventeen phosphorothioate ODNs containing sequences complementary to the 5′ or 3′ UTR of the human HDAC-4 gene (GenBank Accession No. AB006626) were screened as above. […] HDAC-4 MM1 and MM2 oligonucleotides were created as controls; compared to the antisense oligonucleotides, they each contain a 6-base mismatch.
# as §4, §6
# human HDAC-5 RNA = assay: antisense screen by Northern blot in T24 cells, HDAC-5; assay type: cell-based; details: screened as above (T24 cells, 100 nM, 24 hours)
# Protocol: Thirteen phosphorothioate ODNs containing sequences complementary to the 5′ or 3′ untranslated regions of the human HDAC-5 gene (GenBank Accession No. AF039691) were screened as above.
# as §4
# Cells were harvested, and total RNAs were analyzed by Northern blot analysis. Briefly, total RNA was extracted using RNeasy miniprep columns (QIAGEN). Ten to twenty μg of total RNA was run on a formaldehyde-containing 1% agarose gel with 0.5 M sodium phosphate (pH 7.0) as the buffer system. […]
# human HDAC-6 RNA = assay: antisense screen by Northern blot in T24 cells, HDAC-6; assay type: cell-based; details: screened as above (T24 cells, 100 nM, 24 hours)
# Protocol: Thirteen phosphorothioate ODNs containing sequences complementary to the 5′ or 3′ untranslated regions of the human HDAC-6 gene (GenBank Accession No. AJ011972) were screened as above. […] HDAC-6 MM oligo was created as a control; compared to the antisense oligo, it contains a 7-base mismatch.
# as §4, §6
compound,measurement,setting,value
CC(/C=C/C(=O)Nc1ccccc1N)=C\C(C)C(=O)c1ccc(N(C)C)cc1 (stereo not drawn) [Compound 1],Cell Cycle Arrest EC,[1],2 µM
same,EC50,[2],3000 nM
"HDAC-1 AS1: antisense oligonucleotide to human HDAC1, 5′-GAAACGTGAGGGACTCAGCA-3′ (SEQ ID NO:17) (chemistry not given here)",Apoptosis After 48 Hour Treatment HMEC,HMEC [3],− (< = 2x fold over non-specific background)
same,expression of cyclin B1,[4],repress expression
same,"antisense activity to human HDAC-1 (RNA expression, Northern blot)",human HDAC-1 RNA,antisense activity
same,Apoptosis After 48 Hour Treatment T24,T24 [5],− (< = 2x fold over non-specific background)
same,expression of cyclin A,[6],repress expression
same,Apoptosis After 48 Hour Treatment A549,A549 [7],+ (2-3X fold)
"HDAC-1 AS2: antisense oligonucleotide to human HDAC1, 5′-GGAAGCCAGAGCTGGAGAGG-3′ (SEQ ID NO:18) (chemistry not given here)",expression of cyclin B1,[4],repress expression
same,"antisense activity to human HDAC-1 (RNA expression, Northern blot)",human HDAC-1 RNA,antisense activity
same,expression of cyclin A,[6],repress expression
"HDAC-2 AS: antisense oligonucleotide to human HDAC2, 5′-GCTGAGCTGTTCTGATTTGG-3′ (SEQ ID NO:20) (chemistry not given here)",Apoptosis After 48 Hour Treatment HMEC,HMEC [3],− (< = 2x fold over non-specific background)
same,Apoptosis After 48 Hour Treatment MDAmb231,MDAmb231 [8],− (< = 2x fold over non-specific background)
same,cancer cell growth inhibition,human cancer cells,minimal effect
same,Growth Inhibition (AS vs. MM) MDAmb231,MDAmb231 [9],− (no inhibition)
same,"antisense activity to human HDAC-2 (RNA expression, Northern blot)",human HDAC-2 RNA,antisense activity
same,Apoptosis After 48 Hour Treatment T24,T24 [5],− (< = 2x fold over non-specific background)
same,Apoptosis After 48 Hour Treatment A549,A549 [7],− (< = 2x fold over non-specific background)
"HDAC-3 AS: antisense oligonucleotide to human HDAC3, 5′-CGCTTTCCTTGTCATTGACA-3′ (SEQ ID NO:22) (chemistry not given here)",Apoptosis After 48 Hour Treatment HMEC,HMEC [3],− (< = 2x fold over non-specific background)
same,Apoptosis After 48 Hour Treatment MDAmb231,MDAmb231 [8],− (< = 2x fold over non-specific background)
same,growth arrest and apoptosis of human cancer cells,human cancer cells,no effect
same,Growth Inhibition (AS vs. MM) HMEC,HMEC [10],− (no inhibition)
same,Growth Inhibition (AS vs. MM) T24,T24 [11],− (no inhibition)
same,"antisense activity to human HDAC-3 (RNA expression, Northern blot)",human HDAC-3 RNA,antisense activity
same,Growth Inhibition (AS vs. MM) MDAmb231,MDAmb231 [9],− (no inhibition)
same,Apoptosis After 48 Hour Treatment T24,T24 [5],− (< = 2x fold over non-specific background)
same,Growth Inhibition (AS vs. MM) A549,A549 [12],− (no inhibition)
same,Apoptosis After 48 Hour Treatment A549,A549 [7],− (< = 2x fold over non-specific background)
"HDAC-4 AS2: antisense oligonucleotide to human HDAC4, 5′-TACAGTCCATGCAACCTCCA-3′ (SEQ ID NO:26) (sugars from the 5' end m4 d12 m4, all phosphorothioate, methylation of C and T or U not given here)","antisense activity to human HDAC-4 (RNA expression, Northern blot)",human HDAC-4 RNA,antisense activity
"HDAC-5 AS: antisense oligonucleotide to human HDAC5, 5′-CTTCGGTCTCACCTGCTTGG-3′ (SEQ ID NO:28) (sugars from the 5' end m4 d12 m4, all phosphorothioate, methylation of C and T or U not given here)","antisense activity to human HDAC-5 (RNA expression, Northern blot)",human HDAC-5 RNA,antisense activity
"HDAC-6 AS: antisense oligonucleotide to human HDAC6, 5′-CAGGCTGGAATGAGCTACAG-3′ (SEQ ID NO:29) (chemistry not given here)","antisense activity to human HDAC-6 (RNA expression, Northern blot)",human HDAC-6 RNA,antisense activity
same,Apoptosis After 48 Hour Treatment HMEC,HMEC [3],− (< = 2x fold over non-specific background)
same,Apoptosis After 48 Hour Treatment MDAmb231,MDAmb231 [8],− (< = 2x fold over non-specific background)
same,growth arrest and apoptosis of human cancer cells,human cancer cells,no effect
same,Growth Inhibition (AS vs. MM) HMEC,HMEC [10],− (no inhibition)
same,Growth Inhibition (AS vs. MM) T24,T24 [11],− (no inhibition)
same,Apoptosis After 48 Hour Treatment T24,T24 [5],− (< = 2x fold over non-specific background)
same,Growth Inhibition (AS vs. MM) A549,A549 [12],− (no inhibition)
same,Apoptosis After 48 Hour Treatment A549,A549 [7],− (< = 2x fold over non-specific background)
